According to patent US8287923B2, “Compositions and methods for treating immune disorders” (priority 2005, dated 2012):

Tests used:
Type in all cases: cell-based, human
NS-SV-AC cells [1] = test: Western analysis of autoantigen protein levels; settings: 100 uM
Method: (§1) Western blot. Cells were washed in ice-cold PBS and lysed for 20 min in RIPA buffer containing 1% (v/v) Nonidet P-40, 0.5% (w/v) sodium deoxycholate, 0.1% (w/v) SDS, 10 μg/ml leupeptin, 3 μg/ml aprotinin and 100 mM phenylmethylsulfonyl fluoride (PMSF). Samples of lysates containing the same amount of protein were loaded in each lane (we used 5-30μg, depending on the antibody used) and electrophoretically separated on a 12% SDS polyacrylamide gel. Following electrophoresis, proteins were transferred to a PVDF membrane (Immobilon™-P, Millipore Corporation, Bedford, Mass.). The membrane was blocked for 1 h with 5% (w/v) non-fat dry milk powder in PBST (0.1% Tween-20 in PBS) and then incubated for 1 h with primary antibody diluted in PBST/milk (Antibodies and dilutions: rabbit polyclonal JNK1/2, […], mouse monoclonal pJNK1/2, 1:1000, rabbit polyclonal ERK, 1:2000, rabbit polyclonal p38, 1:1000, rabbit polyclonal pp 38, 1:1000 and goat polyclonal actin, 1:2000). The membrane was washed three times with PBST and incubated with peroxidase-conjugated, affinity-purified anti-rabbit IgG (Santa Cruz Biotechnology, Inc.) for 1 h. Following extensive washing, the reaction was developed by enhanced chemiluminescent staining using ECL Western blotting detection reagents (Amersham Pharmacia Biotech Inc., Piscataway, N.J.).
(§2) To extend the mRNA data, the protein levels of 6 different autoantigens in NHEK and NS-SV-AC cells were determined by Western analysis following two treatments with 100 uM EGCSG at 24 and 48 hrs.

NHEK [2] = test: Western analysis of autoantigen protein levels; settings: 100 uM
Method: as §1, §2

NS-SV-AC cells [3] = test: Semi-quantitative RT-PCR of SS-A/Ro and SS-B/La mRNA; settings: 100 uM EGCG, different times
Method: (§3) Cell treatment: ECCG was dissolved in cell culture media as a 50 mM stock immediately before use. Exponentially growing NS-SV-AC cells were incubated with 100 μM ECCG for various time periods in the growth media described above, and then were either extracted for total RNA or cell lysates prior to RT-PCR or Western blots.
(§4) Total RNA was extracted using an RNeasy total RNA isolation system (QIAGEN, Valentia, Calif.) RT reactions and PCR reactions were performed according to the manufacturer's protocol (Super Array Bioscience Corp). For amplification, the following pair of primers was used,
(§5) Amplification was started by heating for 1.5 min at 94° C., followed by 30 cycles for 52 kD SSA/Ro. 25 cycles for GAPDH and 25 cycles for SSB/La, each cycle consisting of 15
(§6) second at 94° C., 30 seconds at 57.3° C., and 1 min at 72° C. A final extension was performed at 72° C. for 5 min prior to gel analysis.
(§7) To further test this possibility, three cell types, NHEK, NS-SV-AC (an SV40 immortalized cell line derived from human submandibular acinar cells) and OC2 cells (derived from an oral squamous cell carcinoma) were treated with 100 uM EGCG for different times. A semi-quantitative estimate of SS-A/Ro and SS-B/La mRNA levels was then obtained by RT-PCR during the exponential period of amplification. GAPDH was used as a housekeeping gene control.

NHEK [4] = test: as above; settings: 100 uM EGCG, different times
Method: as §3, §4, §5, §6, §7

NS-SV-AC cells [5] = test: TNF-α-induced cytotoxicity, MTT assay; settings: dose-dependent; 100 ng/ml TNFα, 24 hr; p<0.05
Method: TNF-α cyotoxicity: NS-SV-AC cells (0.5×10<4> cells/well) were seeded in a 96-well microplate and either treated for 24 hr with EGCC as described above (or not treated in the control), in the presence of 100 ng/ml TNFα and 10 μg/ml cyclohexamide. After the treatments, viability was determined by the MTT assay. The cells in each well were washed with 200 μl of phosphate-buffered saline (PBS) and incubated with 100 μl of 2% (w/v) MTT in a solution of 0.05 M Tris-HCl (pH 7.6), 0.5 mM MgCl2, 2.5 mM CoCl2 and 0.25 M disodium succinate at 37° C. for 30 min. Cells were fixed by the addition of 100 μl of 4% (v/v) formalin in 0.2 M Tris-HCl (pH 7.6), and after a 5 min incubation at room temperature liquid was removed and the wells were allowed to dry. Each well was rinsed with 200 μl water and cells were solubilized by the addition of 100 μl of 6.35% (v/v) 0.1 N NaOH in DMSO. The colored formazan product was measured by a Thermo MAX micro plate reader (Molecular Devices Corp. Sunnyvale, Calif.) at a wavelength of 562 nm.
We examined the effects of EGCG on TNF-α-induced cytotoxicity of the human salivary gland acinar cell line NS-SV-AC using the MTT assay.
To examine the role of activation of the p38 signaling pathway in reducing TNF-α-induced cytotoxicity, cells were exposed to TNF-[alpha] and EGCG in the presence of either the p38 MAPK inhibitor SB203580 or the MEK inhibitor PD98059.

`O=C(O[C@@H]1Cc2c(O)cc(O)cc2O[C@@H]1c1cc(O)c(O)c(O)c1)c1cc(O)c(O)c(O)c1` [EGCG, (−)-epigallocatechin-3-gallate] was tested, and the Golgin-67 protein level (NS-SV-AC cells [1]; 24 hrs) was “reduced”, the PARP protein level (NS-SV-AC cells [1]; 24 hrs) was “significantly reduced” and the “SS-A/Ro 52 protein level” value (NS-SV-AC cells [1]; 24 hrs) was “Neither SS-A/Ro 52 nor SS-B/La were significantly reduced”. For the same molecule, the SS-B/La protein level (NS-SV-AC cells [1]; 24 hrs) was “Neither SS-A/Ro 52 nor SS-B/La were significantly reduced”, the coilin protein level (NS-SV-AC cells [1]; 24 hrs) was “significantly reduced” and the Golgin-67 protein level (NS-SV-AC cells [1]; 48 hrs) was “barely detectable”. The PARP protein level (NS-SV-AC cells [1]; 48 hrs) was “barely detectable”, the “SS-A/Ro 52 protein level” value (NS-SV-AC cells [1]; 48 hrs) was “considerably reduced” and the SS-B/La protein level (NS-SV-AC cells [1]; 48 hrs) was “considerably reduced”. The coilin protein level (NS-SV-AC cells [1]; 48 hrs) was “barely detectable”, the PARP protein level (NHEK [2]; 24 hrs) was “significantly reduced” and the “SS-A/Ro 52 protein level” value (NHEK [2]; 24 hrs) was “Neither SS-A/Ro 52 nor SS-B/La were significantly reduced”. The SS-B/La protein level (NHEK [2]; 24 hrs) was “Neither SS-A/Ro 52 nor SS-B/La were significantly reduced”, the coilin protein level (NHEK [2]; 24 hrs) was “significantly reduced” and the Golgin-67 protein level (NHEK [2]; 48 hrs) was “the reduction was not as marked and was only observed at 48 hrs”. For the same molecule, the PARP protein level (NHEK [2]; 48 hrs) was “barely detectable”, the “SS-A/Ro 52 protein level” value (NHEK [2]; 48 hrs) was “considerably reduced” and the SS-B/La protein level (NHEK [2]; 48 hrs) was “considerably reduced”. The coilin protein level (NHEK [2]; 48 hrs) was “barely detectable”, the “SS-B/La mRNA level” value (NS-SV-AC cells [3]) was “decreased progressively and substantially” and the “SS-B/La mRNA level” value (NHEK [4]) was “decreased progressively and substantially”. For the same molecule, the “protection from TNFα-induced cytotoxicity” value (NS-SV-AC cells [5]) was “up to 50%”.
